Experimental data published in a compilation of properties of binary mixtures (doi:10.1016/j.molliq.2012.02.019).

Test: xn = mol fraction of the nth substance listed
Details: 101 kPa

## CCCCCCCC[N+](C)(CCCCCCCC)CCCCCCCC.[Cl-] + COC(=O)OC
298.15 K, x1 = 0.002
  electrical conductivity: 0.0001 S/m
298.15 K, x1 = 0.011
  electrical conductivity: 0.0006 S/m
298.15 K, x1 = 0.015
  electrical conductivity: 0.0009 S/m
298.15 K, x2 = 0.35
  electrical conductivity: 0.0047 S/m
  viscosity: 530 mPa·s
298.15 K, x2 = 0.55
  electrical conductivity: 0.0098 S/m
  viscosity: 158 mPa·s
298.15 K, x2 = 0.76
  electrical conductivity: 0.0211 S/m
  viscosity: 22.51 mPa·s
298.15 K, x2 = 0.83
  electrical conductivity: 0.0235 S/m
  viscosity: 10.27 mPa·s
298.15 K, x2 = 0.92
  electrical conductivity: 0.0171 S/m
  viscosity: 2.52 mPa·s
298.15 K, x2 = 0.95
  electrical conductivity: 0.0076 S/m
  viscosity: 1.41 mPa·s
298.15 K, x2 = 0.98
  electrical conductivity: 0.0012 S/m
  viscosity: 0.79 mPa·s
303.15 K, x1 = 0.006
  electrical conductivity: 0.0003 S/m
303.15 K, x1 = 0.011
  electrical conductivity: 0.0008 S/m
303.15 K, x2 = 0
  electrical conductivity: 0.0035 S/m
  viscosity: 1602 mPa·s
303.15 K, x2 = 0.35
  electrical conductivity: 0.0064 S/m
  viscosity: 400 mPa·s
303.15 K, x2 = 0.67
  electrical conductivity: 0.019 S/m
  viscosity: 47.1 mPa·s
303.15 K, x2 = 0.76
  electrical conductivity: 0.0259 S/m
  viscosity: 18.86 mPa·s
303.15 K, x2 = 0.83
  electrical conductivity: 0.0287 S/m
  viscosity: 8.87 mPa·s
303.15 K, x2 = 0.88
  electrical conductivity: 0.031 S/m
  viscosity: 4.56 mPa·s
303.15 K, x2 = 0.92
  electrical conductivity: 0.0204 S/m
  viscosity: 2.27 mPa·s
303.15 K, x2 = 0.95
  electrical conductivity: 0.0094 S/m
  viscosity: 1.3 mPa·s
303.15 K, x2 = 0.98
  electrical conductivity: 0.0016 S/m
  viscosity: 0.75 mPa·s
308.15 K, x1 = 0.002
  electrical conductivity: 0.0002 S/m
308.15 K, x1 = 0.006
  electrical conductivity: 0.0004 S/m
308.15 K, x1 = 0.011
  electrical conductivity: 0.0009 S/m
308.15 K, x1 = 0.015
  electrical conductivity: 0.0013 S/m
308.15 K, x2 = 0
  electrical conductivity: 0.0049 S/m
  viscosity: 1067 mPa·s
308.15 K, x2 = 0.35
  electrical conductivity: 0.0084 S/m
  viscosity: 304 mPa·s
308.15 K, x2 = 0.55
  electrical conductivity: 0.016 S/m
  viscosity: 98 mPa·s
308.15 K, x2 = 0.67
  electrical conductivity: 0.0236 S/m
  viscosity: 38.66 mPa·s
308.15 K, x2 = 0.83
  electrical conductivity: 0.0345 S/m
  viscosity: 7.71 mPa·s
308.15 K, x2 = 0.88
  electrical conductivity: 0.037 S/m
  viscosity: 4.11 mPa·s
308.15 K, x2 = 0.92
  electrical conductivity: 0.0246 S/m
  viscosity: 2.07 mPa·s
313.15 K, x1 = 0.002
  electrical conductivity: 0.0003 S/m
313.15 K, x1 = 0.011
  electrical conductivity: 0.001 S/m
313.15 K, x1 = 0.015
  electrical conductivity: 0.0014 S/m
313.15 K, x2 = 0
  electrical conductivity: 0.0066 S/m
  viscosity: 770 mPa·s
313.15 K, x2 = 0.35
  electrical conductivity: 0.0108 S/m
  viscosity: 238 mPa·s
313.15 K, x2 = 0.67
  electrical conductivity: 0.0287 S/m
  viscosity: 32.21 mPa·s
313.15 K, x2 = 0.76
  electrical conductivity: 0.038 S/m
  viscosity: 13.72 mPa·s
313.15 K, x2 = 0.83
  electrical conductivity: 0.041 S/m
  viscosity: 6.91 mPa·s
313.15 K, x2 = 0.88
  electrical conductivity: 0.0438 S/m
  viscosity: 3.7 mPa·s
313.15 K, x2 = 0.95
  electrical conductivity: 0.014 S/m
  viscosity: 1.13 mPa·s
318.15 K, x1 = 0.002
  electrical conductivity: 0.0004 S/m
318.15 K, x1 = 0.006
  electrical conductivity: 0.0006 S/m
318.15 K, x1 = 0.011
  electrical conductivity: 0.0012 S/m
318.15 K, x1 = 0.015
  electrical conductivity: 0.0015 S/m
318.15 K, x2 = 0
  electrical conductivity: 0.0087 S/m
  viscosity: 570 mPa·s
318.15 K, x2 = 0.35
  electrical conductivity: 0.0138 S/m
  viscosity: 200 mPa·s
318.15 K, x2 = 0.55
  electrical conductivity: 0.0249 S/m
  viscosity: 65.2 mPa·s
318.15 K, x2 = 0.67
  electrical conductivity: 0.0347 S/m
  viscosity: 27.29 mPa·s
318.15 K, x2 = 0.76
  electrical conductivity: 0.0452 S/m
  viscosity: 11.84 mPa·s
318.15 K, x2 = 0.83
  electrical conductivity: 0.0482 S/m
  viscosity: 6.15 mPa·s
318.15 K, x2 = 0.88
  electrical conductivity: 0.0513 S/m
  viscosity: 3.36 mPa·s
318.15 K, x2 = 0.92
  electrical conductivity: 0.0342 S/m
  viscosity: 1.75 mPa·s
318.15 K, x2 = 0.95
  electrical conductivity: 0.0167 S/m
  viscosity: 1.06 mPa·s
318.15 K, x2 = 0.98
  electrical conductivity: 0.002 S/m
  viscosity: 0.64 mPa·s

## COC(=O)OC + CCCCCCCC[N+](C)(CCCCCCCC)CCCCCCCC.[Cl-]
303.15 K, x1 = 1
  electrical conductivity: 0.0001 S/m
  viscosity: 0.55 mPa·s
308.15 K, x1 = 1
  viscosity: 0.49 mPa·s
